Laboratory results taken from EP4371563A1, “COMBINATIONS OF LAROTRECTINIB AND MODERATE CYP3A4 INDUCERS” (Bayer Consumer Care AG, priority 2022, dated 2024).

Key:
[1] = In silico model: simulated larotrectinib plasma exposure after a single oral dose with and without itraconazole or rifampicin (model verification against observed data); parameters: species or system human
Protocol: The effect of different CYP3A4 inhibitors and inducers on the pharmacokinetics of larotrectinib was evaluated using an in silico model. The following drugs were included in the study: The model was correlated by comparison of simulated and observed plasma concentrations in both healthy subjects and cancer patients for midazolam, testosterone, and several of the tested drugs, including larotrectinib alone, larotrectinib + intraconazole, larotrectinib + rifampicin. The following virtual trials were conducted: 12 healthy subjects (50% female) aged 20 to 55 years receiving larotrectinib (100 mg BID) for 14 days in the absence of itraconazole and coadminstered with itraconazole (tablets in fed state; 200 mg QD). A comparison was made between mean simulated and observed plasma concentrations of larotrectinib following a single oral dose of 100 mg larotrectinib in the absence of and co-administered with itraconazole on the 5th day of 7 days of dosing (200 mg QD). Simulated Cmax and AUC and corresponding ratios for larotrectinib are shown below. […] A comparison was made between mean simulated and observed plasma concentrations of larotrectinib following a single oral dose of 100 mg larotrectinib in the absence of and co-administered with rifampicin on the 10th day of 11 days of dosing (600 mg QD). Simulated Cmax and AUC and corresponding ratios for larotrectinib are shown below.

[2] = Observed larotrectinib plasma exposure after a single oral dose with and without itraconazole or rifampicin; format: in vivo, human; details: for AUC / Cmax: human, plasma, po
Protocol: A comparison was made between mean simulated and observed plasma concentrations of larotrectinib following a single oral dose of 100 mg larotrectinib in the absence of and co-administered with itraconazole on the 5th day of 7 days of dosing (200 mg QD). Simulated Cmax and AUC and corresponding ratios for larotrectinib are shown below. […] A comparison was made between mean simulated and observed plasma concentrations of larotrectinib following a single oral dose of 100 mg larotrectinib in the absence of and co-administered with rifampicin on the 10th day of 11 days of dosing (600 mg QD). Simulated Cmax and AUC and corresponding ratios for larotrectinib are shown below.

[3] = Observed larotrectinib exposure at 100 mg BID without CYP3A4 perpetrators; details: in vivo, 100 mg BID larotrectinib in the absence of any CYP3A4 perpetrators
Protocol: 100 mg BID larotrectinib was administered in the absence of any CYP3A4 perpetrators.

[4] = Observed, plus rifampicin 600 mg QD / control, single oral dose 100 mg larotrectinib, interval in brackets
[5] = coadministration of larotrectinib with rifampicin (600 mg QD)
[6] = 100 mg, Observed, Control: single oral dose 100 mg larotrectinib in absence of itraconazole, healthy subjects
[7] = 100 mg, Observed, Control: single oral dose 100 mg larotrectinib in absence of rifampicin
[8] = Observed, single oral dose 100 mg larotrectinib plus itraconazole 200 mg QD (5th day of 7 days), healthy subjects
[9] = Observed, single oral dose 100 mg larotrectinib plus rifampicin 600 mg QD (10th day of 11 days)

## O=C(Nc1cnn2ccc(N3CCC[C@@H]3c3cc(F)ccc3F)nc12)N1CC[C@H](O)C1 [larotrectinib]
[1]; predicted/observed of the AUC ratio plus itraconazole / control
  P/O Ratio AUC: 1.04
[1]; predicted/observed of the AUC ratio plus rifampicin / control
  P/O Ratio AUC: 0.79
[1]; predicted/observed of the Cmax ratio plus itraconazole / control
  P/O Ratio Cmax: 0.79
[1]; predicted/observed of the Cmax ratio plus rifampicin / control
  P/O Ratio Cmax: 0.76
[2]; [4]
  Ratio AUC: 0.19 (0.16, 0.24)
  Ratio Cmax: 0.29 (0.23, 0.37)
[2]; [5]
  observed reduction in exposure of larotrectinib, AUC: 81%
  observed reduction in exposure of larotrectinib, Cmax: 71%
[2]; [6]
  AUC: 1.28 µg·h/mL
  Cmax: 0.497 µg/mL
[2]; [7]
  AUC: 1.34 µg·h/mL
  Cmax: 0.435 µg/mL
[2]; [8]
  AUC: 5.52 µg·h/mL
  Cmax: 1.4 µg/mL
[2]; [9]
  AUC: 0.259 µg·h/mL
  Cmax: 0.133 µg/mL
[3]
  AUC: 1.59 µg·h/mL
  Cmax: 0.624 µg/mL
